In article PMC5218480 (PLoS ONE, 2017):

System: MV-4-11 cells
Test: Gene expression microarray analysis (Affymetrix PrimeView) and GSEA
Format: cell-based, human
Parameters: RFU PODN (11730768_x_at) / Fold change /veh PODN (11730768_x_at) / RFU LINC00158 (11744669_a_at) / Fold change /veh LINC00158 (11744669_a_at) / RFU DUSP10 (11751237_a_at) / Fold change /veh DUSP10 (11751237_a_at) / RFU ID3 (11757404_x_at) / Fold change /veh ID3 (11757404_x_at) / RFU PLEKHG5 (11737974_s_at) / Fold change /veh PLEKHG5 (11737974_s_at) / RFU LRRC4B (11730491_at) / Fold change /veh LRRC4B (11730491_at) / RFU GIMAP4 (11747438_a_at) / Fold change /veh GIMAP4 (11747438_a_at) / RFU KRT8 (11758183_x_at) / Fold change /veh KRT8 (11758183_x_at) / RFU CNN1 (11734310_a_at) / Fold change /veh CNN1 (11734310_a_at) / RFU VPS37D (11726825_at) / Fold change /veh VPS37D (11726825_at) / RFU C10orf10 (11716522_x_at) / Fold change /veh C10orf10 (11716522_x_at) / RFU KIR2DL2 /// KIR2DL4 /// KIR2DL5A /// KIR2DL5B /// KIR2DS1 /// KIR2DS2 /// KIR2DS3 /// KIR2DS4 /// KIR3DL3 /// KIR3DL3 /// KIR3DS1 (11738374_at) / Fold change /veh KIR2DL2 /// KIR2DL4 /// KIR2DL5A /// KIR2DL5B /// KIR2DS1 /// KIR2DS2 /// KIR2DS3 /// KIR2DS4 /// KIR3DL3 /// KIR3DL3 /// KIR3DS1 (11738374_at) / RFU C1QL1 (11718748_at) / Fold change /veh C1QL1 (11718748_at) / RFU TMPRSS4 (11747572_a_at) / Fold change /veh TMPRSS4 (11747572_a_at) / RFU HAMP (11756126_x_at) / Fold change /veh HAMP (11756126_x_at) / RFU RNFT2 (11725882_a_at) / Fold change /veh RNFT2 (11725882_a_at) / RFU NR4A2 (11747474_a_at) / Fold change /veh NR4A2 (11747474_a_at) / RFU ABCC12 (11746883_a_at) / Fold change /veh ABCC12 (11746883_a_at) / RFU TMEM136 (11760407_x_at) / Fold change /veh TMEM136 (11760407_x_at) / RFU CLDN22 /// WWC2 (11732394_at) / Fold change /veh CLDN22 /// WWC2 (11732394_at) / RFU HLA-DPB1 (11760878_x_at) / Fold change /veh HLA-DPB1 (11760878_x_at) / RFU SPINT1 (11716480_a_at) / Fold change /veh SPINT1 (11716480_a_at) / RFU GAP43 (11754022_s_at) / Fold change /veh GAP43 (11754022_s_at) / RFU A4GNT (11735810_at) / Fold change /veh A4GNT (11735810_at) / RFU PRB3 (11715151_x_at) / Fold change /veh PRB3 (11715151_x_at) / RFU TUBB4B (11761932_at) / Fold change /veh TUBB4B (11761932_at) / RFU CAPN14 (11732068_a_at) / Fold change /veh CAPN14 (11732068_a_at) / RFU TMCC2 (11721928_a_at) / Fold change /veh TMCC2 (11721928_a_at) / RFU IRGQ (11745062_a_at) / Fold change /veh IRGQ (11745062_a_at) / RFU FAM174B (11720279_a_at) / Fold change /veh FAM174B (11720279_a_at) / RFU TMPRSS4 (11748680_a_at) / Fold change /veh TMPRSS4 (11748680_a_at) / RFU FAM212B (11763350_a_at) / Fold change /veh FAM212B (11763350_a_at) / RFU PLEKHG5 (11743358_a_at) / Fold change /veh PLEKHG5 (11743358_a_at) / RFU ZSCAN30 (11745921_a_at) / Fold change /veh ZSCAN30 (11745921_a_at) / RFU CMKLR1 (11741424_a_at) / Fold change /veh CMKLR1 (11741424_a_at) / RFU LOC101060620 /// MAPK8IP1 (11723275_at) / Fold change /veh LOC101060620 /// MAPK8IP1 (11723275_at) / RFU SPTSSB (11747773_x_at) / Fold change /veh SPTSSB (11747773_x_at) / RFU PRSS12 (11739890_at) / Fold change /veh PRSS12 (11739890_at) / RFU BIN1 (11741810_x_at) / Fold change /veh BIN1 (11741810_x_at) / RFU WNT11 (11732464_a_at) / Fold change /veh WNT11 (11732464_a_at) / RFU C10orf10 (11716521_a_at) / Fold change /veh C10orf10 (11716521_a_at) / RFU C5orf56 (11738089_at) / Fold change /veh C5orf56 (11738089_at) / RFU CYB561 (11721691_x_at) / Fold change /veh CYB561 (11721691_x_at) / RFU ANKRD19P (11752326_a_at) / Fold change /veh ANKRD19P (11752326_a_at) / RFU OR2T12 /// OR2T33 /// OR2T8 (11738714_s_at) / Fold change /veh OR2T12 /// OR2T33 /// OR2T8 (11738714_s_at) / RFU VCAN (11748164_a_at) / Fold change /veh VCAN (11748164_a_at) / RFU JSRP1 (11732532_at) / Fold change /veh JSRP1 (11732532_at) / RFU KRTAP10-11 (11738290_x_at) / Fold change /veh KRTAP10-11 (11738290_x_at) / RFU MYO3A (11730013_a_at) / Fold change /veh MYO3A (11730013_a_at) / RFU EBF3 (11725865_a_at) / Fold change /veh EBF3 (11725865_a_at) / RFU CAMK2N1 (11719241_x_at) / Fold change /veh CAMK2N1 (11719241_x_at) / RFU C5orf56 (11738088_a_at) / Fold change /veh C5orf56 (11738088_a_at) / RFU OLFML3 (11715873_a_at) / Fold change /veh OLFML3 (11715873_a_at) / RFU LOC100653217 /// NTM (11731650_a_at) / Fold change /veh LOC100653217 /// NTM (11731650_a_at) / RFU MAPK11 (11762145_a_at) / Fold change /veh MAPK11 (11762145_a_at) / RFU FIZ1 (11724087_x_at) / Fold change /veh FIZ1 (11724087_x_at) / RFU OASL (11726364_x_at) / Fold change /veh OASL (11726364_x_at) / RFU SOX15 (11748057_x_at) / Fold change /veh SOX15 (11748057_x_at) / RFU CD79A (11719716_a_at) / Fold change /veh CD79A (11719716_a_at) / RFU HIST1H1D (11736915_at) / Fold change /veh HIST1H1D (11736915_at) / RFU CASKIN2 (11723855_a_at) / Fold change /veh CASKIN2 (11723855_a_at) / RFU LOC730098 (11760151_x_at) / Fold change /veh LOC730098 (11760151_x_at) / RFU OR4N2 (11742367_at) / Fold change /veh OR4N2 (11742367_at) / RFU PRRT2 (11749266_a_at) / Fold change /veh PRRT2 (11749266_a_at) / RFU SNX32 (11753110_a_at) / Fold change /veh SNX32 (11753110_a_at) / RFU CDHR5 (11726645_a_at) / Fold change /veh CDHR5 (11726645_a_at) / RFU RCAN1 (11760418_a_at) / Fold change /veh RCAN1 (11760418_a_at) / RFU FAM167A (11723789_a_at) / Fold change /veh FAM167A (11723789_a_at) / RFU FAM26E (11764081_at) / Fold change /veh FAM26E (11764081_at) / RFU ISYNA1 (11749810_s_at) / Fold change /veh ISYNA1 (11749810_s_at) / RFU ACY1 (11761880_at) / Fold change /veh ACY1 (11761880_at) / RFU 11764098_at / Fold change /veh 11764098_at / RFU SAMD14 (11745864_x_at) / Fold change /veh SAMD14 (11745864_x_at) / RFU NPB (11741838_a_at) / Fold change /veh NPB (11741838_a_at) / RFU TMPRSS6 (11731388_a_at) / Fold change /veh TMPRSS6 (11731388_a_at) / RFU KRTAP10-2 (11738614_at) / Fold change /veh KRTAP10-2 (11738614_at) / RFU ARHGAP8 /// PRR5-ARHGAP8 (11727945_x_at) / Fold change /veh ARHGAP8 /// PRR5-ARHGAP8 (11727945_x_at) / RFU KRTAP5-7 /// NADSYN1 (11734609_at) / Fold change /veh KRTAP5-7 /// NADSYN1 (11734609_at) / RFU RASL12 (11751679_a_at) / Fold change /veh RASL12 (11751679_a_at) / RFU CDKN2B (11736163_a_at) / Fold change /veh CDKN2B (11736163_a_at) / RFU PRF1 (11729649_at) / Fold change /veh PRF1 (11729649_at) / RFU, ZNF638 /// ZNF638-IT1 / Fold change vs veh, ZNF638 /// ZNF638-IT1 / RFU, PANK3 / Fold change vs veh, PANK3 / RFU, SH3YL1 / Fold change vs veh, SH3YL1 / RFU, ZEB2 / Fold change vs veh, ZEB2 / RFU, NRIP1 / Fold change vs veh, NRIP1 / RFU, PTTG1IP / Fold change vs veh, PTTG1IP / RFU, CAPN2 / Fold change vs veh, CAPN2 / RFU, MED14 / Fold change vs veh, MED14 / RFU, SNORA58 / Fold change vs veh, SNORA58 / RFU, C1orf63 / Fold change vs veh, C1orf63 / RFU, LRRFIP1 / Fold change vs veh, LRRFIP1 / RFU, NDUFAF7 / Fold change vs veh, NDUFAF7 / RFU, SLC12A2 / Fold change vs veh, SLC12A2 / RFU, IBTK / Fold change vs veh, IBTK / RFU, ESF1 / Fold change vs veh, ESF1 / Fold change vs veh, TMEM50B / RFU, TAOK1 / Fold change vs veh, TAOK1 / RFU, ACBD3 / Fold change vs veh, ACBD3 / RFU, TMA16 / Fold change vs veh, TMA16 / RFU, RWDD3 / Fold change vs veh, RWDD3 / RFU, BCAT1 / Fold change vs veh, BCAT1 / RFU, EDEM3 / Fold change vs veh, EDEM3 / RFU, TMEM33 / Fold change vs veh, TMEM33 / RFU, WDR75 / Fold change vs veh, WDR75 / RFU, AHCTF1 / Fold change vs veh, AHCTF1 / RFU, TFRC / Fold change vs veh, TFRC / RFU, ZDHHC17 / Fold change vs veh, ZDHHC17 / RFU, NOM1 / Fold change vs veh, NOM1 / RFU, ARL8B / Fold change vs veh, ARL8B / RFU, ZBTB11 / Fold change vs veh, ZBTB11 / RFU, TAMM41 / Fold change vs veh, TAMM41 / RFU, KIAA1704 /// LOC100996395 / Fold change vs veh, KIAA1704 /// LOC100996395 / RFU, ING1 / Fold change vs veh, ING1 / RFU, TRMT61B / Fold change vs veh, TRMT61B / RFU, FUBP3 / Fold change vs veh, FUBP3 / RFU, TP53 / Fold change vs veh, TP53 / RFU, TNKS2 / Fold change vs veh, TNKS2 / RFU, ZFP14 / Fold change vs veh, ZFP14 / RFU, ACTR2 / Fold change vs veh, ACTR2 / RFU, PPP3R1 / Fold change vs veh, PPP3R1 / RFU, PIK3R1 / Fold change vs veh, PIK3R1 / RFU, HNRNPA1 / Fold change vs veh, HNRNPA1 / RFU, RNF170 / Fold change vs veh, RNF170 / RFU, ZNF28 / Fold change vs veh, ZNF28 / RFU, RNGTT / Fold change vs veh, RNGTT / RFU, OGT / Fold change vs veh, OGT / RFU, BRD1 / Fold change vs veh, BRD1 / RFU, MARS / Fold change vs veh, MARS / RFU, ZNF655 / Fold change vs veh, ZNF655 / RFU, FAHD1 / Fold change vs veh, FAHD1 / RFU, BDP1 / Fold change vs veh, BDP1 / RFU, LRRCC1 / Fold change vs veh, LRRCC1 / RFU, ARID1A / Fold change vs veh, ARID1A / RFU, ZNF146 / Fold change vs veh, ZNF146 / RFU, ZNF330 / Fold change vs veh, ZNF330 / RFU, GPN3 / Fold change vs veh, GPN3 / RFU, C9orf123 / Fold change vs veh, C9orf123 / RFU, N4BP2L2 / Fold change vs veh, N4BP2L2 / RFU, ARFIP1 / Fold change vs veh, ARFIP1 / RFU, FAM179B / Fold change vs veh, FAM179B / RFU, BCL10 / Fold change vs veh, BCL10 / RFU, UHRF1BP1L / Fold change vs veh, UHRF1BP1L / RFU, BET1 / Fold change vs veh, BET1 / RFU, CNOT2 / Fold change vs veh, CNOT2 / RFU, ZNF268 / Fold change vs veh, ZNF268 / Fold change vs veh, ZNF507 / RFU, DGCR2 / Fold change vs veh, DGCR2 / RFU, WDSUB1 / Fold change vs veh, WDSUB1 / Fold change vs veh, HSP90B1 /// MIR3652 / RFU, ADSS / Fold change vs veh, ADSS / RFU, GK / Fold change vs veh, GK / RFU, ZNF148 / Fold change vs veh, ZNF148 / RFU, TAF9 / Fold change vs veh, TAF9 / RFU, SLC1A5 / Fold change vs veh, SLC1A5 / RFU, SLMO2 / Fold change vs veh, SLMO2 / RFU, ABCC4 / Fold change vs veh, ABCC4 / RFU, LOC101060439 /// RAP1B / Fold change vs veh, LOC101060439 /// RAP1B / RFU, RFX7 / Fold change vs veh, RFX7 / RFU, GTPBP10 / Fold change vs veh, GTPBP10 / RFU, CNEP1R1 / Fold change vs veh, CNEP1R1 / RFU, BIVM-ERCC5 /// ERCC5 / Fold change vs veh, BIVM-ERCC5 /// ERCC5 / RFU, ILF3 / Fold change vs veh, ILF3 / RFU 11762660_at / Fold change /veh 11762660_at / RFU VCAN (11757783_s_at) / Fold change /veh VCAN (11757783_s_at) / RFU DDX43 (11728927_at) / Fold change /veh DDX43 (11728927_at) / RFU KRT8 (11758188_x_at) / Fold change /veh KRT8 (11758188_x_at) / RFU NKD1 (11759106_at) / Fold change /veh NKD1 (11759106_at) / RFU SRD5A1 (11742802_a_at) / Fold change /veh SRD5A1 (11742802_a_at) / RFU TPSAB1 /// TPSB2 (11721975_s_at) / Fold change /veh TPSAB1 /// TPSB2 (11721975_s_at) / RFU GSTM3 (11746129_a_at) / Fold change /veh GSTM3 (11746129_a_at) / RFU IL23R (11737362_x_at) / Fold change /veh IL23R (11737362_x_at) / RFU TMEM51 (11727254_a_at) / Fold change /veh TMEM51 (11727254_a_at) / RFU PIWIL2 (11732686_x_at) / Fold change /veh PIWIL2 (11732686_x_at) / RFU ORM1 (11744905_x_at) / Fold change /veh ORM1 (11744905_x_at) / RFU CCDC152 (11743942_at) / Fold change /veh CCDC152 (11743942_at) / RFU ECM1 (11717891_a_at) / Fold change /veh ECM1 (11717891_a_at) / RFU IL23R (11748794_a_at) / Fold change /veh IL23R (11748794_a_at) / RFU TNFAIP8L3 (11732012_x_at) / Fold change /veh TNFAIP8L3 (11732012_x_at) / RFU MBOAT4 (11741988_at) / Fold change /veh MBOAT4 (11741988_at) / RFU 11764193_at / Fold change /veh 11764193_at / RFU TMEM53 (11763286_at) / Fold change /veh TMEM53 (11763286_at) / RFU MAGEB2 (11727129_at) / Fold change /veh MAGEB2 (11727129_at) / RFU TMEM200A (11744735_a_at) / Fold change /veh TMEM200A (11744735_a_at) / RFU CCDC152 (11751479_a_at) / Fold change /veh CCDC152 (11751479_a_at) / RFU FAM211A (11726209_a_at) / Fold change /veh FAM211A (11726209_a_at) / RFU RGS16 (11746705_a_at) / Fold change /veh RGS16 (11746705_a_at) / RFU VCAN (11755009_s_at) / Fold change /veh VCAN (11755009_s_at) / RFU RHOB (11743442_s_at) / Fold change /veh RHOB (11743442_s_at) / RFU RGS16 (11720943_a_at) / Fold change /veh RGS16 (11720943_a_at) / RFU RGS16 (11720944_at) / Fold change /veh RGS16 (11720944_at) / RFU, VPS4B / Fold change vs veh, VPS4B / RFU, CREB1 / Fold change vs veh, CREB1 / RFU, DNAJC13 / Fold change vs veh, DNAJC13 / RFU, GNAQ / Fold change vs veh, GNAQ / RFU, CDK5R1 / Fold change vs veh, CDK5R1 / RFU, ZRANB3 / Fold change vs veh, ZRANB3 / RFU, CUL4A / Fold change vs veh, CUL4A / RFU, CCNY / Fold change vs veh, CCNY / RFU, UFL1 / Fold change vs veh, UFL1 / RFU, COG3 / Fold change vs veh, COG3 / RFU, DIAPH2 / Fold change vs veh, DIAPH2 / RFU, SKA2 / Fold change vs veh, SKA2 / RFU, AFF3 / Fold change vs veh, AFF3 / RFU, LMF1 / Fold change vs veh, LMF1 / RFU, IPO11 / Fold change vs veh, IPO11 / RFU, DFFB / Fold change vs veh, DFFB / RFU, FOXP1 / Fold change vs veh, FOXP1 / RFU, CARD8 / Fold change vs veh, CARD8 / RFU, STRN3 / Fold change vs veh, STRN3 / RFU, ADK / Fold change vs veh, ADK / RFU, RASSF2 / Fold change vs veh, RASSF2 / RFU, WIPF1 / Fold change vs veh, WIPF1 / RFU, LARP1B / Fold change vs veh, LARP1B / RFU, RASA1 / Fold change vs veh, RASA1 / RFU, RB1 / Fold change vs veh, RB1 / RFU, PPFIA1 / Fold change vs veh, PPFIA1 / RFU, MAT2A / Fold change vs veh, MAT2A / RFU, CCT5 / Fold change vs veh, CCT5 / RFU, WDR92 / Fold change vs veh, WDR92 / RFU, CUX1 / Fold change vs veh, CUX1 / RFU, TTC7A / Fold change vs veh, TTC7A / RFU, TMEM135 / Fold change vs veh, TMEM135 / RFU, DEPTOR / Fold change vs veh, DEPTOR / RFU, CPM / Fold change vs veh, CPM / RFU, DNAJB6 / Fold change vs veh, DNAJB6 / RFU, CACNA2D3 / Fold change vs veh, CACNA2D3 / RFU, DTX4 / Fold change vs veh, DTX4 / RFU, TFCP2 / Fold change vs veh, TFCP2 / RFU, GMCL1 /// GMCL1P1 / Fold change vs veh, GMCL1 /// GMCL1P1 / RFU, AEBP2 / Fold change vs veh, AEBP2 / RFU, SNHG1 /// SNORD22 /// SNORD25 /// SNORD26 /// SNORD27 /// SNORD28 /// SNORD29 /// SNORD31 / Fold change vs veh, SNHG1 /// SNORD22 /// SNORD25 /// SNORD26 /// SNORD27 /// SNORD28 /// SNORD29 /// SNORD31 / Fold change (Aza/veh), C12orf56 (ProbeSet 11735607_a_at) / Fold change (ACY-1035/veh), C12orf56 (ProbeSet 11735607_a_at) / Fold change (Aza/veh), FGFR1OP (ProbeSet 11751329_s_at) / Fold change (ACY-1035/veh), FGFR1OP (ProbeSet 11751329_s_at) / Fold change (Aza/veh), VPS36 (ProbeSet 11739960_a_at) / Fold change (ACY-1035/veh), VPS36 (ProbeSet 11739960_a_at) / RFU SYPL1 (11715823_x_at) / Fold change /veh SYPL1 (11715823_x_at) / RFU IGFBP7 (11715501_s_at) / Fold change /veh IGFBP7 (11715501_s_at) / RFU REEP3 (11722064_at) / Fold change /veh REEP3 (11722064_at) / RFU IGLL1 (11728026_x_at) / Fold change /veh IGLL1 (11728026_x_at): dose or concentration left out as unconfirmed
Settings: ProbeSet 11732165_x_at; LIST D

In the case of `Nc1ncn([C@@H]2O[C@H](CO)[C@@H](O)[C@H]2O)c(=O)n1` [azacitidine], the “Fold change vs veh, LMF1” value is reported as 0.71.
